Test results taken from patent US20250011288A1 (BRISTOL-MYERS SQUIBB COMPANY, priority 2021, published 2025).

Target: T1, human RXFP1 (Homo sapiens, UniProt Q9HBX9)
T1 construct: expressed in transfected cells
T1 sequence (Q9HBX9 1-757): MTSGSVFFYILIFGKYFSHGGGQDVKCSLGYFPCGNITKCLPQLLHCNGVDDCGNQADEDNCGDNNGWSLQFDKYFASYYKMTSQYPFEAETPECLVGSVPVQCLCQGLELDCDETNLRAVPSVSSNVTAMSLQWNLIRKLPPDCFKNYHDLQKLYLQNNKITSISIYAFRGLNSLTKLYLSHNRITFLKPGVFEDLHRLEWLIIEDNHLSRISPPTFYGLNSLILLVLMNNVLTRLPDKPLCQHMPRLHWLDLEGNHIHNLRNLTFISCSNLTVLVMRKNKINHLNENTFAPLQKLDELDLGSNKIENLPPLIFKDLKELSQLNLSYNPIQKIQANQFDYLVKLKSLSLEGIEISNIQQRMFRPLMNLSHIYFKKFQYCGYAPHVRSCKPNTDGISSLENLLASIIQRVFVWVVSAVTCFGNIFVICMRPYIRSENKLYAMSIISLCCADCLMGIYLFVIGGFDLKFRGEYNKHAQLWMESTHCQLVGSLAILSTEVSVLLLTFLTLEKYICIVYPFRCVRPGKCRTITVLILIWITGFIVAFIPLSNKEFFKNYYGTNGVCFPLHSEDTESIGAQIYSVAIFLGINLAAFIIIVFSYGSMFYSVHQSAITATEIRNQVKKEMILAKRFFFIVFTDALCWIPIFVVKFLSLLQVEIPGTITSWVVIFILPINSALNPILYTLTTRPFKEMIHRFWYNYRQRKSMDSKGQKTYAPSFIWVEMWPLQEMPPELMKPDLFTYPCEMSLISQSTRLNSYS
Test: human RXFP1 (hRXFP1) HEK293 cAMP assay (HTRF)
Assay type: cell-based
Conditions: HEK293 cells stably expressing human RXFP1, 30 min at room temperature
In short: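 HEK293 cells stably expressing human RXFP1 (1500 cells/well) in HBSS/20 mM HEPES/0.05% BSA/0.5 mM IBMX, treated with compound (0.010 nM–50 µM final, 2% DMSO) for 30 min at room temperature. Intracellular cAMP read by HTRF; potency from 4-parameter logistic fit of cAMP versus concentration.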

EC50 | Compound
3.4 nM | COc1ncc(-c2cnc3n2CC(O)CC3)cc1C(=O)N[C@H]1[C@@H](C(=O)Nc2ccc(F)c(C(F)(F)F)c2)[C@H]2CC[C@@H]1/C2=C\C1CC1 (stereo partly drawn) [Example 103, N-((1R,2R,3S,4R,Z)-7-(cyclopropyl-methylene)-3-((4-fluoro-3-(trifluoromethyl)phenyl)carbamoyl)bicyclo[2.2.1]heptan-2-yl)-5-(6-hydroxy-5,6,7,8-tetrahydroimidazo [1,2-a]pyridin-3-yl)-2-methoxynicotinamide]
4 nM | COc1ncc(-c2cnc3n2CC(O)CC3)cc1C(=O)N[C@H]1[C@@H](C(=O)Nc2ccc(F)c(C(F)(F)F)c2)[C@H]2CC[C@@H]1/C2=C\C1CC1 (stereo partly drawn) [Example 104, N-((1R,2R,3S,4R,Z)-7-(cyclopropyl-methylene)-3-((4-fluoro-3-(trifluoromethyl)phenyl)carbamoyl)bicyclo[2.2.1]heptan-2-yl)-5-(6-hydroxy-5,6,7,8-tetrahydroimidazo[1,2-a]pyridin-3-yl)-2-methoxynicotinamide]
1.2 nM | COc1ncc(C2=NOC3CC(CO)CC23)cc1C(=O)N[C@H]1[C@@H](C(=O)N[C@H](C)C2(C)CC2)[C@H]2CC[C@@H]1/C2=C\C1CC1 (stereo partly drawn) [Example 105, N-((1R,2R,3S,4R,Z)-7-(cyclopropyl-methylene)-3-(((R)-1-(1-methylcyclopropyl)ethyl)carbamoyl)bicyclo[2.2.1]heptan-2-yl)-5-(5-(hydroxymethyl)-3a,5,6,6a-tetrahydro-4H-cyclopenta[d]isoxazol-3-yl)-2-methoxynicotinamide]
1.8 nM | COc1ncc(C2=NO[C@@H]3C[C@H](CO)CN23)cc1C(=O)N[C@@H]1C2CCC(/C2=C/C2CC2)[C@@H]1C(=O)N[C@H](C)C1(C)CC1 (stereo partly drawn) [Example 106, N-((1R,2R,3S,4R,Z)-7-(cyclopropyl-methylene)-3-(((R)-1-(1-methylcyclopropyl)ethyl)carbamoyl)bicyclo[2.2.1]heptan-2-yl)-5-((6S,7aR)-6-(hydroxymethyl)-5,6,7,7a-tetrahydropyrrolo [1,2-d][1,2,4]oxadiazo 1-3-yl)-2-methoxynicotinamide]
2.6 nM | COc1ncc(C2=NO[C@H]3C[C@H](CO)CN23)cc1C(=O)N[C@@H]1C2CCC(/C2=C/C2CC2)[C@@H]1C(=O)N[C@H](C)C1(C)CC1 (stereo partly drawn) [Example 107, N-((1R,2R,3S, 4R,Z)-7-(cyclopropyl-methylene)-3-(((R)-1-(1-methylcyclopropyl)ethyl)carbamoyl)bicyclo[2.2.1]heptan-2-yl)-5-((6S,7aS)-6-(hydroxymethyl)-5,6,7,7a-tetrahydropyrrolo [1,2-d][1,2,4]oxadiazo 1-3-yl)-2-methoxynicotinamide]
3.5 nM | COc1ncc(C2=NOC3CC(C(O)C(F)(F)F)CC23)cc1C(=O)N[C@H]1[C@@H](C(=O)NC23CC(C#N)(C2)C3)[C@H]2CC[C@@H]1/C2=C\C1CC1 (stereo partly drawn) [Example 108, N-((1R,2R,3S,4R,Z)-3-((3-cyanobicyclo [1.1.1]pentan-1-yl)carbamoyl)-7-(cyclopropyl-methylene)bicyclo[2.2.1]heptan-2-yl)-2-methoxy-5-(5-(2,2,2-trifluoro-1-hydroxyethyl)-3a,5,6,6a-tetrahydro-4H-cyclopenta[d]isoxazol-3-yl)nicotinamide]
2.7 nM | COc1ncc(C2=NOC3CC(C(C)(C)O)CC23)cc1C(=O)N[C@H]1[C@@H](C(=O)Nc2ccc(F)c(C(F)(F)F)c2)[C@H]2CC[C@@H]1/C2=C\C1CC1 (stereo partly drawn) [Example 109, N-((1R,2R,3S,4R,Z)-7-(cyclopropylmethylene)-3-((4-fluoro-3-(trifluoromethyl)phenyl)carbamoyl)bicyclo[2.2.1]heptan-2-yl)-5-(5-(2-hydroxypropan-2-yl)-3a,5,6,6a-tetrahydro-4H-cyclopenta[d]isoxazol-3-yl)-2-methoxynicotinamide]
3.5 nM | COc1ncc(C2=NOC3CC(C(C)O)CC23)cc1C(=O)N[C@H]1[C@@H](C(=O)Nc2ccc(F)c(C(F)(F)F)c2)[C@H]2CC[C@@H]1/C2=C\C1CC1 (stereo partly drawn) [Example 110, N-((1R,2R,3S, 4R,Z)-7-(cyclopropyl-methylene)-3-((4-fluoro-3-(trifluoromethyl)phenyl)carbamoyl)bicyclo[2.2.1]heptan-2-yl)-5-(5-(1-hydroxyethyl)-3a,5,6,6a-tetrahydro-4H-cyclopenta[d]isoxazol-3-yl)-2-methoxy-nicotinamide]
3.6 nM | COc1ncc(C2=NOC3CC(C(O)C4CC4)CC23)cc1C(=O)N[C@H]1[C@@H](C(=O)Nc2ccc(F)c(C(F)(F)F)c2)[C@H]2CC[C@@H]1/C2=C\C1CC1 (stereo partly drawn) [Example 111, 5-(5-(cyclopropyl (hydroxy)methyl)-3a,5,6,6a-tetrahydro-4H-cyclopenta[d]isoxazol-3-yl)-N-((1R,2R,3S,4R,Z)-7-(cyclopropyl-methylene)-3-((4-fluoro-3-(trifluoromethyl)phenyl)carbamoyl)bicyclo[2.2.1]heptan-2-yl)-2-methoxynicotinamide]
3.9 nM | COc1ncc(C2=NOC3CC(C(C)O)CC23)cc1C(=O)N[C@H]1[C@@H](C(=O)Nc2ccc(F)c(C(F)(F)F)c2)[C@H]2CC[C@@H]1/C2=C\C1CC1 (stereo partly drawn) [Example 112, N-((1R,2R,3S,4R,Z)-7-(cyclopropyl-methylene)-3-((4-fluoro-3-(trifluoromethyl)phenyl)carbamoyl)bicyclo[2.2.1]heptan-2-yl)-5-(5-(1-hydroxyethyl)-3a,5,6,6a-tetrahydro-4H-cyclopenta[d]isoxazol-3-yl)-2-methoxynicotinamide]
4.3 nM | CCC(O)C1CC2ON=C(c3cnc(OC)c(C(=O)N[C@H]4[C@@H](C(=O)Nc5ccc(F)c(C(F)(F)F)c5)[C@H]5CC[C@@H]4/C5=C\C4CC4)c3)C2C1 (stereo partly drawn) [Example 113, N-((1R,2R,3S,4R,Z)-7-(cyclopropyl-methylene)-3-((4-fluoro-3-(trifluoromethyl)phenyl)carbamoyl)bicyclo[2.2.1]heptan-2-yl)-5-(5-(1-hydroxypropyl)-3a,5,6,6a-tetrahydro-4H-cyclopenta[d]isoxazol-3-yl)-2-methoxynicotinamide]
2.1 nM | COc1ncc(C2=NOC3CC(CO)CC23)cc1C(=O)N[C@H]1[C@@H](C(=O)N[C@H](C)C2(C)CC2)[C@H]2CC[C@@H]1/C2=C\C(F)(F)F (stereo partly drawn) [Example 115, 5-(5-(hydroxymethyl)-3a,5,6,6a-tetrahydro-4H-cyclopenta[d]isoxazol-3-yl)-2-methoxy-N-((1R,2R,3S,4R,Z)-3-(((R)-1-(1-methylcyclopropyl)ethyl)carbamoyl)-7-(2,2,2-trifluoroethylidene)bicyclo[2.2.1]heptan-2-yl)nicotinamide]
2.7 nM | COc1ncc(C2=NOC3CC(CO)CC23)cc1C(=O)N[C@H]1[C@@H](C(=O)N[C@H](C)C2(C)CC2(F)F)[C@H]2CC[C@@H]1/C2=C\C(F)(F)F (stereo partly drawn) [Example 116, N-((1R,2R,3S,4R,Z)-3-(((1R)-1-(2,2-difluoro-1-methylcyclopropyl)ethyl)carbamoyl)-7-(2,2,2-trifluoroethylidene)bicyclo[2.2.1]heptan-2-yl)-5-(5-(hydroxymethyl)-3a,5,6,6a-tetrahydro-4H-cyclopenta[d]isoxazol-3-yl)-2-methoxynicotinamide]
